Tested on: Wnt3a-mediated β-catenin signaling in HEK293-TB cells
Assay type: cell-based

Sequence: LPSDDAEFWCHVMY [dFz7-21-L6A]
- reduction in cellular potency: ~800 fold

Reference: patent publication US20190359653A1, “SELECTIVE PEPTIDE INHIBITORS OF FRIZZLED” (Genentech, Inc., priority 2016, published 2019)
